Results published in PubChem BioAssay AID1963831 (Molecular Pharmacology Branch, DTP, NCI, 2024).

Tested on: 889142-216-R-J1-PDC complex spheroid viability
Assay: Anticancer human tumor 889142-216-R-J1-PDC patient-derived bladder carcinoma cell line growth inhibition [POLQ]
Conditions: for IC50: curve of first compound; for viability, T/C: stronger effect = lower value; active = viability on the fitted dose curve at most 10% of control; inactive = the rest
How it was run: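 Patient-derived tumour cells were co-cultured with HUVEC and mesenchymal stem cells as multicellular spheroids at 37 °C. They were treated with POLQ inhibitors (novobiocin, ART-558, RP6685) alone or combined with other agents. Top concentrations were at or near clinical Cmax (otherwise 10 microM; SN-38 at 1 microM), decreasing in half-log steps.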

[1] = second compound 0.0316 µM, first compound 0.0316 µM
[2] = second compound 0.0316 µM, first compound 0.1 µM
[3] = second compound 0.0316 µM, first compound 0.316 µM
[4] = second compound 0.0316 µM, first compound 1 µM
[5] = second compound 0.1 µM, first compound 0.0316 µM
[6] = second compound 0.1 µM, first compound 0.1 µM
[7] = second compound 0.1 µM, first compound 0.316 µM
[8] = second compound 0.1 µM, first compound 1 µM
[9] = second compound 0.316 µM, first compound 0.0316 µM
[10] = second compound 0.316 µM, first compound 0.1 µM
[11] = second compound 0.316 µM, first compound 0.316 µM
[12] = second compound 0.316 µM, first compound 1 µM
[13] = second compound 1 µM, first compound 0.0316 µM
[14] = second compound 1 µM, first compound 0.1 µM
[15] = second compound 1 µM, first compound 0.316 µM
[16] = second compound 1 µM, first compound 1 µM
[17] = second compound 3.16 µM, first compound 0.0316 µM
[18] = second compound 3.16 µM, first compound 0.1 µM
[19] = second compound 3.16 µM, first compound 0.316 µM
[20] = second compound 3.16 µM, first compound 1 µM
[21] = second compound 10 µM, first compound 0.0316 µM
[22] = second compound 10 µM, first compound 0.1 µM
[23] = second compound 10 µM, first compound 0.316 µM
[24] = second compound 10 µM, first compound 1 µM
[25] = second compound 0.0316 µM, first compound 3.16 µM
[26] = second compound 0.0316 µM, first compound 10 µM
[27] = second compound 0.1 µM, first compound 3.16 µM
[28] = second compound 0.1 µM, first compound 10 µM
[29] = second compound 0.316 µM, first compound 3.16 µM
[30] = second compound 0.316 µM, first compound 10 µM
[31] = second compound 1 µM, first compound 3.16 µM
[32] = second compound 1 µM, first compound 10 µM
[33] = second compound 3.16 µM, first compound 3.16 µM
[34] = second compound 3.16 µM, first compound 10 µM
[35] = second compound 10 µM, first compound 3.16 µM
[36] = second compound 10 µM, first compound 10 µM
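Also: spheroids exposed to compounds for seven days.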
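For viability, T/C in this document: 100% = DMSO vehicle control viability.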

C=CCn1c(=O)c2cnc(Nc3ccc(N4CCN(C)CC4)cc3)nc2n1-c1cccc(C(C)(C)O)n1 + COC1C(OC(N)=O)C(O)C(Oc2ccc3c(O)c(NC(=O)c4ccc(O)c(CC=C(C)C)c4)c(=O)oc3c2C)OC1(C)C
inactive: viability, T/C (second compound 0.0316 µM, first compound 0.00316 µM) 97.1% | viability, T/C (second compound 0.0316 µM, first compound 0.01 µM) 152% | viability, T/C [1] 86.6% | viability, T/C [2] 83.1% | viability, T/C [3] 66.1% | viability, T/C [4] 52% | viability, T/C (second compound 0.1 µM, first compound 0.00316 µM) 98.3% | viability, T/C (second compound 0.1 µM, first compound 0.01 µM) 111% | viability, T/C [5] 108% | viability, T/C [6] 81.2% | viability, T/C [7] 60.9% | viability, T/C [8] 57.5% | viability, T/C (second compound 0.316 µM, first compound 0.00316 µM) 100% | viability, T/C (second compound 0.316 µM, first compound 0.01 µM) 125% | viability, T/C [9] 103% | viability, T/C [10] 86.4% | viability, T/C [11] 63.6% | viability, T/C [12] 54.7% | viability, T/C (second compound 1 µM, first compound 0.00316 µM) 112% | viability, T/C (second compound 1 µM, first compound 0.01 µM) 110% | viability, T/C [13] 113% | viability, T/C [14] 89.5% | viability, T/C [15] 68.6% | viability, T/C [16] 57% | viability, T/C (second compound 3.16 µM, first compound 0.00316 µM) 90.2% | viability, T/C (second compound 3.16 µM, first compound 0.01 µM) 99.6% | viability, T/C [17] 85.4% | viability, T/C [18] 108% | viability, T/C [19] 64.5% | viability, T/C [20] 50.2% | viability, T/C (second compound 10 µM, first compound 0.00316 µM) 127% | viability, T/C (second compound 10 µM, first compound 0.01 µM) 116% | viability, T/C [21] 97.8% | viability, T/C [22] 85.9% | viability, T/C [23] 62.5% | viability, T/C [24] 51.8%
> 1000 nM: IC50 (second compound 0.0316 µM) | IC50 (second compound 0.1 µM) | IC50 (second compound 0.316 µM) | IC50 (second compound 1 µM) | IC50 (second compound 3.16 µM) | IC50 (second compound 10 µM)

O=c1[nH]cc(F)c(=O)[nH]1 + Nc1ccc(C#CCN(C(=O)Cc2ncc(C(F)(F)F)cc2C(F)(F)F)c2ccc(F)cc2)nn1
inactive: viability, T/C [1] 91.6% | viability, T/C [2] 86.2% | viability, T/C [3] 90% | viability, T/C [4] 80% | viability, T/C [25] 81.1% | viability, T/C [26] 60.7% | viability, T/C [5] 91.1% | viability, T/C [6] 78.8% | viability, T/C [7] 58.8% | viability, T/C [8] 75.1% | viability, T/C [27] 67.1% | viability, T/C [28] 69.1% | viability, T/C [9] 108% | viability, T/C [10] 73.9% | viability, T/C [11] 68% | viability, T/C [12] 82.7% | viability, T/C [29] 68.3% | viability, T/C [30] 61.7% | viability, T/C [13] 83.4% | viability, T/C [14] 101% | viability, T/C [15] 79.8% | viability, T/C [16] 66.6% | viability, T/C [31] 61.9% | viability, T/C [32] 60.1% | viability, T/C [17] 82.7% | viability, T/C [18] 89.2% | viability, T/C [19] 83.3% | viability, T/C [20] 67.4% | viability, T/C [33] 72.4% | viability, T/C [34] 73.8% | viability, T/C [21] 109% | viability, T/C [22] 103% | viability, T/C [23] 83.2% | viability, T/C [24] 78.4% | viability, T/C [35] 68.6% | viability, T/C [36] 67.2%
> 10000 nM: IC50 (second compound 0.0316 µM) | IC50 (second compound 0.1 µM) | IC50 (second compound 0.316 µM) | IC50 (second compound 1 µM) | IC50 (second compound 3.16 µM) | IC50 (second compound 10 µM)

COc1cc(C2c3cc4c(cc3C(OC3OC5COC(C)OC5C(O)C3O)C3COC(=O)C23)OCO4)cc(OC)c1O (stereo not drawn) + Cc1cccc(N(C)C(=O)C2C(O)CCN2c2nc(C)cc(C(F)(F)F)c2C#N)c1
> 10000 nM: IC50 (second compound 0.0316 µM) | IC50 (second compound 0.1 µM) | IC50 (second compound 0.316 µM) | IC50 (second compound 1 µM) | IC50 (second compound 3.16 µM)
4630 nM: IC50 (second compound 10 µM)
inactive: viability, T/C [1] 83.9% | viability, T/C [2] 74.5% | viability, T/C [3] 65.3% | viability, T/C [4] 53.5% | viability, T/C [25] 65.1% | viability, T/C [26] 66% | viability, T/C [5] 82.6% | viability, T/C [6] 85.2% | viability, T/C [7] 70.9% | viability, T/C [8] 56.4% | viability, T/C [27] 68.5% | viability, T/C [28] 57.6% | viability, T/C [9] 93.1% | viability, T/C [10] 86.9% | viability, T/C [11] 59.4% | viability, T/C [12] 64% | viability, T/C [29] 70.1% | viability, T/C [30] 52.6% | viability, T/C [13] 86.2% | viability, T/C [14] 83.6% | viability, T/C [15] 62% | viability, T/C [16] 45.9% | viability, T/C [31] 70.6% | viability, T/C [32] 58.8% | viability, T/C [17] 83% | viability, T/C [18] 81.2% | viability, T/C [19] 64.2% | viability, T/C [20] 62.1% | viability, T/C [33] 62.4% | viability, T/C [34] 52.4% | viability, T/C [21] 77.4% | viability, T/C [22] 74.1% | viability, T/C [23] 61% | viability, T/C [24] 61% | viability, T/C [35] 59.8% | viability, T/C [36] 40.4%

COc1cccc2c1C(=O)c1c(O)c3c(c(O)c1C2=O)CC(O)(C(=O)CO)CC3OC1CC(N)C(O)C(C)O1 (stereo not drawn) + Nc1ccc(C#CCN(C(=O)Cc2ncc(C(F)(F)F)cc2C(F)(F)F)c2ccc(F)cc2)nn1
450 nM: IC50 (second compound 1 µM)
active: viability, T/C [4] 6.13% | viability, T/C [25] 0.74% | viability, T/C [26] 1.95% | viability, T/C [8] 9.08% | viability, T/C [27] 1.08% | viability, T/C [28] 1.72% | viability, T/C [12] 8.99% | viability, T/C [29] 1.03% | viability, T/C [30] 1.55% | viability, T/C [16] 7.94% | viability, T/C [31] 1.14% | viability, T/C [32] 2.34% | viability, T/C [20] 4.28% | viability, T/C [33] 0.84% | viability, T/C [34] 1.58% | viability, T/C [24] 3.75% | viability, T/C [35] 1.07% | viability, T/C [36] 1.08%
287 nM: IC50 (second compound 3.16 µM)
inactive: viability, T/C [1] 55.1% | viability, T/C [2] 78.9% | viability, T/C [3] 52.2% | viability, T/C [5] 71.8% | viability, T/C [6] 79.8% | viability, T/C [7] 52% | viability, T/C [9] 66.6% | viability, T/C [10] 76.2% | viability, T/C [11] 44.1% | viability, T/C [13] 77.8% | viability, T/C [14] 75.3% | viability, T/C [15] 68.6% | viability, T/C [17] 66% | viability, T/C [18] 77.7% | viability, T/C [19] 47.9% | viability, T/C [21] 71.5% | viability, T/C [22] 72.3% | viability, T/C [23] 50.2%
254 nM: IC50 (second compound 0.316 µM)
318 nM: IC50 (second compound 10 µM)
338 nM: IC50 (second compound 0.0316 µM)
339 nM: IC50 (second compound 0.1 µM)
